# Molecular target: T1, Calf polymerase alpha (Bos taurus, UniProt A0AAA9TD94)
# T1 construct: purchased Replizyme Ltd (Heslington, York, UK)
# T1 sequence (A0AAA9TD94 1-1441): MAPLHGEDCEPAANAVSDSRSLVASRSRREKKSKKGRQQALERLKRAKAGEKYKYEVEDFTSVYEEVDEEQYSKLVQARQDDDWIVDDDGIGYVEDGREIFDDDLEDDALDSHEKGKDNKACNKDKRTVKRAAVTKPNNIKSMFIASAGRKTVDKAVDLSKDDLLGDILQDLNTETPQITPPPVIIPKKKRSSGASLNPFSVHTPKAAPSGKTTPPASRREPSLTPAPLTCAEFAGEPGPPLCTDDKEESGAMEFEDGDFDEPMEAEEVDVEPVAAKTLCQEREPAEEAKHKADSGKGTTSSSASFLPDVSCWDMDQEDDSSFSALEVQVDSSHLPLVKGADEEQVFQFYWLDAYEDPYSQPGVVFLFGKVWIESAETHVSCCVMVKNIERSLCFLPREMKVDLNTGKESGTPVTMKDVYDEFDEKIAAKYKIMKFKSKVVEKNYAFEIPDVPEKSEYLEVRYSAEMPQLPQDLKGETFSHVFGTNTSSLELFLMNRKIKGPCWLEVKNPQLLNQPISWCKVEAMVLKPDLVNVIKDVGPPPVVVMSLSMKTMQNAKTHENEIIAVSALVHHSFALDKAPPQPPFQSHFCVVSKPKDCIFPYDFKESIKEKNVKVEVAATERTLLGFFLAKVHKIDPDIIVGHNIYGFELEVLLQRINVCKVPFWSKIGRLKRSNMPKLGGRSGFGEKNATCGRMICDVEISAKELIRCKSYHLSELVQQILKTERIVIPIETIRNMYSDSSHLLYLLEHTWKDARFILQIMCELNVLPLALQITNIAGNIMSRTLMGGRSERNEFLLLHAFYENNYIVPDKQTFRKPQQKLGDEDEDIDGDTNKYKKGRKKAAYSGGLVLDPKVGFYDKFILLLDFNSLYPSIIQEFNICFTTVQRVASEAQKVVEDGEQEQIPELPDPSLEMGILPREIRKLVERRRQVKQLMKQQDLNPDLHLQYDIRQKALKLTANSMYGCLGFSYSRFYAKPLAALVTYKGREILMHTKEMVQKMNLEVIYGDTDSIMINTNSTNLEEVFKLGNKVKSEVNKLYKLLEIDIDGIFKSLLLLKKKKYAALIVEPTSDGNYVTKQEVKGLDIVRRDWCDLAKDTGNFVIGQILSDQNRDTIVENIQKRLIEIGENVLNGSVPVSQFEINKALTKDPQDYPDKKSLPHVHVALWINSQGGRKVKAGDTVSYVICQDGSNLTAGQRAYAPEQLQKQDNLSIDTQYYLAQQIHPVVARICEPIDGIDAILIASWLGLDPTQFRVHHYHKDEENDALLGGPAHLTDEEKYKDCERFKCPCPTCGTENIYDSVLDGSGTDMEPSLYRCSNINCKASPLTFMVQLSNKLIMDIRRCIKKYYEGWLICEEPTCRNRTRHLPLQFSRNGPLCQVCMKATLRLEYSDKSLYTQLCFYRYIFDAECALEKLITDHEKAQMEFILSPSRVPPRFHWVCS
# Assay: Calf polymerase alpha inhibition (Replizyme kit)
# Assay type: biochemical
# Conditions: at 10 μM, single point screening
# Procedure: Calf polymerase alpha and human polymerase alpha investigations were performed with a kit available from Replizyme Ltd (Heslington, York, UK).
Structure (SMILES),inhibition at 10 µM [%],% Inhibition [%]
"Cc1ccc(NC(=O)[C@H](CCCCN)NC(=O)OCC2c3ccccc3-c3ccccc32)cc1 [Compound 20, (S)-(5-AMINO-1-P-TOLYLCARBAMOYL-PENTYL)-CARBAMIC ACID 9H-FLUOREN-9-YLMETHYL ESTER]",18,–
"NCCCC[C@H](NC(=O)OCC1c2ccccc2-c2ccccc21)C(=O)NCc1ccccc1 [Compound 21, (S)-(5-AMINO-1-BENZYLCARBAMOYL-PENTYL)-CARBAMIC ACID 9H-FLUOREN-9-YLMETHYL ESTER]",12,–
"NCCCC[C@H](NC(=O)OCC1c2ccccc2-c2ccccc21)C(=O)NC1CCCCC1 [Compound 22, (S)-(5-AMINO-1-CYCLOHEXYLCARBAMOYL-PENTYL)-CARBAMIC ACID 9H-FLUOREN-9-YLMETHYL ESTER]",14,–
"NCCCC[C@H](NC(=O)OCC1c2ccccc2-c2ccccc21)C(=O)N(Cc1ccccc1)C1CCCCC1 [Compound 33, (S)-[5-AMINO-1-(BENZYL-CYCLOHEXYL-CARBAMOYL)-PENTYL]-CARBAMIC ACID 9H-FLUOREN-9-YLMETHYL ESTER]",95,–
"Cc1ccc(NC(=O)[C@H](CCCCN)NC(=O)Nc2ccc(-c3ccccc3)cc2)cc1 [Compound 40, (S)-6-AMINO-2-(3-BIPHENYL-4-YL-UREIDO)-HEXANOIC ACID P-TOLYLAMIDE]",–,95
"Cc1ccc(NC(=O)[C@H](CCCCN)NC(=O)C2c3ccccc3-c3ccccc32)cc1 [Compound 52, (S)-9H-FLUORENE-9-CARBOXYLIC ACID (5-AMINO-1-P-TOLYLCARBAMOYL-PENTYL)-AMIDE]",–,13
"Cc1ccc(NC(=O)[C@H](CCCCN)NC(=O)CC2c3ccccc3-c3ccccc32)cc1 [Compound 53, (S)-6-AMINO-2-(2-9H-FLUOREN-9-YL-ACETYLAMINO)-HEXANOIC ACID P-TOLYLAMIDE]",–,22
"Cc1ccc(NC(=O)[C@H](CCCCN)NC(=O)Nc2ccc(Cc3ccccc3)cc2)cc1 [Compound 74, (S)-6-AMINO-2-[3-(4-BENZYL-PHENYL)-UREIDO]-HEXANOIC ACID P-TOLYLAMIDE]",–,92
"Cc1ccc(N(C)C(=O)[C@H](CCCCN)NC(=O)OCC2c3ccccc3-c3ccccc32)cc1 [Compound 92, (S)-[5-AMINO-1-(METHYL-P-TOLYL-CARBAMOYL)-PENTYL]-CARBAMIC ACID 9H-FLUOREN-9-YLMETHYL ESTER]",–,56.5
"Cc1cc2cc(NC(=O)[C@H](CCCCN)NC(=O)Nc3ccc(-c4ccccc4)cc3)ccc2[nH]1 [Compound 94, (S)-6-AMINO-2-(3-BIPHENYL-4-YL-UREIDO)-HEXANOIC ACID (2-METHYL-1H-INDOL-5-YL)-AMIDE]",93,–
"Cc1ccc(NC(=O)[C@H](CN)NC(=O)OCC2c3ccccc3-c3ccccc32)cc1 [Compound 103, (S)-(2-AMINO-1-P-TOLYLCARBAMOYL-ETHYL)-CARBAMIC ACID 9H-FLUOREN-9-YLMETHYL ESTER]",–,72
"Cc1ccc(NC(=O)[C@H](CCN)NC(=O)OCC2c3ccccc3-c3ccccc32)cc1 [Compound 108, (S)-(3-AMINO-1-P-TOLYLCARBAMOYL-PROPYL)-CARBAMIC ACID 9H-FLUOREN-9-YLMETHYL ESTER]",–,84
Cc1ccc(NC(=O)[C@H](CCCC[N+](C)(C)C)NC(=O)OCC2c3ccccc3-c3ccccc32)cc1 [Compound 110],–,62.5
"Cc1ccc(NC(=O)[C@@H](N)CCCCN)cc1 [Compound 114, (S)-2,6-DIAMINO-HEXANOIC ACID P-TOLYLAMIDE]",–,17
"NCCCCC[C@H](NC(=O)Nc1ccc(OCc2ccccc2)cc1)C(=O)Nc1ccc(C2CCCCC2)cc1 [Compound 121, (S)-7-AMINO-2-[3-(4-BENZYLOXY-PHENYL)-UREIDO]-HEPTANOIC ACID (4-CYCLOHEXYL-PHENYL)-AMIDE]",102,–
"Cc1ccc(NC(=O)[C@H](CCCCN(C)C)NC(=O)OCC2c3ccccc3-c3ccccc32)cc1 [Compound 124, (S)-(5-DIMETHYLAMINO-1-P-TOLYLCARBAMOYL-PENTYL)-CARBAMIC ACID 9H-FLUOREN-9-YLMETHYL ESTER]",–,79
"Cc1ccc(NC(=O)[C@H](CCCCN)NC(=O)NC2c3ccccc3-c3ccccc32)cc1 [Compound 126, (S)-6-AMINO-2-[3-(9H-FLUOREN-9-YL)-UREIDO]-HEXANOIC ACID P-TOLYLAMIDE]",–,98
"Cc1ccc(NC(=O)[C@H](CCCCN)NC(=O)Nc2cccc(-c3ccccc3)c2)cc1 [Compound 127, (S)-6-AMINO-2-(3-BIPHENYL-3-YL-UREIDO)-HEXANOIC ACID P-TOLYLAMIDE]",–,45
"NCCCC[C@@H](NC(=O)Nc1ccc(-c2ccccc2)cc1)C(=O)Nc1ccc(C2CCCCC2)cc1 [Compound 142, (R)-6-AMINO-2-(3-BIPHENYL-4-YL-UREIDO)-HEXANOIC ACID (4-CYCLOHEXYL-PHENYL)-AMIDE]",103,–
"Cc1ccc(NC(=O)[C@H](Cc2ccc(CN)cc2)NC(=O)Nc2ccc(-c3ccccc3)cc2)cc1 [Compound 145, (S)-3-(4-AMINOMETHYL-PHENYL)-2-(3-BIPHENYL-4-YL-UREIDO)-N-P-TOLYL-PROPIONAMIDE]",–,102
"Cc1ccc(NC(=O)[C@H](Cc2ccc(CN)cc2)NC(=O)Nc2ccc(OCc3ccccc3)cc2)cc1 [Compound 146, (S)-3-(4-AMINOMETHYL-PHENYL)-2-[3-(4-BENZYLOXY-PHENYL)-UREIDO]-N-P-TOLYL-PROPIONAMIDE]",–,102
"O=C(CC1CNCCN1C(=O)Nc1ccc(OCc2ccccc2)cc1)Nc1ccc(C2CCCCC2)cc1 (stereo not drawn) [Compound 163, 2-[(4-CYCLOHEXYL-PHENYLCARBAMOYL)-METHYL]-PIPERAZINE-1-CARBOXYLIC ACID (4-BENZYLOXY-PHENYL)-AMIDE]",102,–
"NCCCC[C@@H](NC(=O)Nc1ccc(OCc2ccccc2)cc1)C(=O)Nc1ccc(C2CCCCC2)cc1 [Compound 166, (R)-6-AMINO-2-[3-(4-BENZYLOXY-PHENYL)-UREIDO]-HEXANOIC ACID (4-CYCLOHEXYL-PHENYL)-AMIDE]",102,–
"Cc1ccc(NC(=O)[C@H](CCCCNC(=O)CN)NC(=O)OCC2c3ccccc3-c3ccccc32)cc1 [Compound 176, (S)-[5-(2-AMINO-ACETYLAMINO)-1-P-TOLYLCARBAMOYL-PENTYL]-CARBAMIC ACID 9H-FLUOREN-9-YLMETHYL ESTER]",–,68
"CC(=O)NCCCC[C@H](NC(=O)OCC1c2ccccc2-c2ccccc21)C(=O)Nc1ccc(C)cc1 [Compound 181, (S)-(5-ACETYLAMINO-1-P-TOLYLCARBAMOYL-PENTYL)-CARBAMIC ACID 9H-FLUOREN-9-YLMETHYL ESTER]",–,18.5
"Cc1ccc(NC(=O)CC2CN(C(=O)[C@H](C)N)CCN2C(=O)OCC2c3ccccc3-c3ccccc32)cc1 (stereo partly drawn) [Compound 184, 4-((S)-2-AMINO-PROPIONYL)-2-(P-TOLYLCARBAMOYL-METHYL)-PIPERAZINE-1-CARBOXYLIC ACID 9H-FLUOREN-9-YLMETHYL ESTER]",–,38
"CCNCC(=O)N1CCN(C(=O)OCC2c3ccccc3-c3ccccc32)C(CC(=O)Nc2ccc(C)cc2)C1 (stereo not drawn) [Compound 187, 4-(2-ETHYLAMINO-ACETYL)-2-(P-TOLYLCARBAMOYL-METHYL)-PIPERAZINE-1-CARBOXYLIC ACID 9H-FLUOREN-9-YLMETHYL ESTER]",–,33.5
"CNCC(=O)NCCC[C@H](NC(=O)OCC1c2ccccc2-c2ccccc21)C(=O)Nc1ccc(C)cc1 [Compound 223, (S)-[4-(2-METHYLAMINO-ACETYLAMINO)-1-P-TOLYLCARBAMOYL-BUTYL]-CARBAMIC ACID 9H-FLUOREN-9-YLMETHYL ESTER]",–,22
"Cc1ccc(NC(=O)[C@H](CCCCN)NC(=O)Nc2ccc(NCc3ccc(F)cc3)cc2)cc1 [Compound 225, (S)-6-AMINO-2-{3-[4-(4-FLUORO-BENZYLAMINO)-PHENYL]-UREIDO}-HEXANOIC ACID P-TOLYLAMIDE]",–,62
"Cc1cc2cc(NC(=O)[C@H](CCNC(=O)CN)NC(=O)Nc3ccc4c(c3)Cc3ccccc3-4)ccc2[nH]1 [Compound 240, (S)-4-(2-AMINO-ACETYLAMINO)-2-[3-(9H-FLUOREN-2-YL)-UREIDO]-N-(2-METHYL-1H-INDOL-5-YL)-BUTYRAMIDE]",63,–
